In patent publication US10323254B2, “Method for regulating plant growth” (RIKEN, priority 2015, dated 2019):
Entries after “also recorded” stand apart in the source; their conditions may differ.

Columns and labels:
[1] = system: BSS1-GFP; assay: Non-reducing immunoblot analysis of BSS1-GFP oligomer; format: in vivo, Arabidopsis thaliana; settings: non-reducing conditions (without DTT); after BL treatment
Experimental: Oligomeric BSS1-GFP and monomeric BSS1-GFP are shown by arrowhead O and arrowhead M, respectively. […] Total lysates were prepared from the transgenic plants and ultracentrifuged to separate the insoluble (precipitation) and soluble (supernatant) fractions. The insoluble fractions were then treated with the indicated surfactants and subjected to further ultracentrifugation. The resulting supernatants and pellets were analyzed by immunoblotting. As a control, the indicated surfactant-treated BIL2-GFP (protein localized to the mitochondria) samples were centrifuged as above.
[…] The proteins were separated by SDS-PAGE (10% acrylamide gel). After electrophoresis, the proteins were electrophoretically transferred to a Hybond ECL nitrocellulose membrane (Amersham). […]

[2] = system: nEYFP-BSS1 and BIL1-cEYFP; assay: BiFC analysis of the BSS1-BIL1 interaction in protoplast cells; format: cell-based, Arabidopsis; settings: protoplasts
Experimental: BIL1 was fused with the binding-domain (BD) and BSS1 was fused with the prey domain (AD). Empty vector (E) was used as a control. The results are presented as the mean±s.d. from 3 independent experiments. […] FLAG-BIL1 was immunoprecipitated using an anti-FLAG antibody and immunoblotted using anti-GFP and anti-FLAG antibodies. […] The protoplast medium contained DMSO, 100 nM BL, or 3 μM Brz and cells were cultured for 12 hours. The bottom panels show protoplasts cotransfected with nYFP-BSS1 and BSS1-cEYFP (YFP: YFP fluorescence; BF: bright field; Merge: merged image of YFP and BF; arrow: nucleus; scale bar: 5 μm). […]
To analyze the direct interaction between BSS1 and BIL1 in the plant cell and to identify the localization of the possible interaction between the two proteins, a bi-molecular fluorescence complementation (BiFC) analysis was performed. […] The YFP fluorescence signal caused by the binding of nYFP-BSS1 and BIL1-cYFP was only observed in the cytosol and not in the nucleus of the Arabidopsis protoplasts (FIG. 7E). […]

[3] = system: BIL1-GFP; assay: Fluorescence microscopy of BIL1-GFP localization in root cells; format: in vivo, Arabidopsis thaliana; settings: for punctate BIL1-GFP signals: root cells
Experimental: The results are presented as the mean±s.d. (n=61, *P<0.01, Student's t-test). […] The results are presented as the mean±s.d. (n=27, *P<0.01, Student's t-test).
The plants that were transformed with the CaMV35S-BSS1-GFP construct BSS1(-GFP)-OX and the CaMV35S-BIL1-GFP construct BIL1-GFP-OX were observed via confocal laser scanning microscopy with a BX60 fluorescence microscope (Olympus) equipped with a Model CSU10 confocal scanner (Yokogawa Electric) and LSM700 (Zeiss).
The images were analyzed using ImageJ software. To measure the ratio of the nuclear and cytosolic signals of BIL1-GFP for each cell, the signal intensities in the nucleus and cytosol were calculated from the mean of the intensity in each area. The nuclear to cytosolic signal ratio was then calculated for each cell. The average nuclear/cytosolic signal ratio and standard error were calculated from measurements of at least 54 cells from each line (FIG. 9B). Line scan measurements from the vacuole to the nucleus through the cytosol were performed, and representative plot profiles of sample measurements are presented in FIG. 5C.

[4] = system: BSS1 pro:GUS; assay: GUS staining of BSS1 pro:GUS transgenic seedlings; format: in vivo, Arabidopsis thaliana; settings: 3-day-old seedlings on medium with 3 μM Brz, dark or light
Experimental: The data represent the mean±s.d. from 4 independent experiments. […] The samples were grown in the same conditions as FIG. 4A for 3 days (scale bar: 5 mm). FIGS. 4C to 4E show the results of determining the BSS1 expression level by qRT-PCR. Wild-type (WT) seedlings grown on medium with different concentrations of Brz (FIG. 4C) and BL (FIG. 4D) in the light for 7 days and dark-grown seedlings exposed to light for 0-7 days (Figure E) were used for analysis of the BSS1 expression level. The data represent the mean±s.d. of 4 independent experiments. The seedlings of the BSS1 promoter: GUS transgenic plants were used for the histochemical detection of GUS expression. The samples were stained at 37° C. overnight in GUS staining solution as previously described (Ito and Fukuda, 2002, ZEN1 is a key enzyme in the degradation of nuclear DNA during programmed cell death of tracheary elements. Plant Cell 14: 3201-3211). To test the induction of GUS expression, 3-day-old transgenic seedlings were grown on medium with 3 μM Brz or dimethyl sulfoxide (DMSO) as a control.

Row | SMILES | amount of the oligomeric form of BSS1-GFP [1] | localization of YFP signal (nYFP-BSS1 / BIL1-cYFP) ([2]; 100 nM BL for 12 hours) | enhanced nuclear BIL1-GFP signal ([3]; bop1-3 bop2-1 background, root cells of 4-day-old seedlings, 3 μM Brz) | punctate BIL1-GFP signals ([3]; bop1-3 bop2-1 plants, treated with 3 μM Brz) | nuclear-to-cytosolic ratio of the BIL1-GFP signal ([3]; wild-type background, root cells of 4-day-old seedlings, 3 μM Brz) | punctate BIL1-GFP signals ([3]; wild-type background, after 3 μM Brz treatment) | BSS1 pro:GUS reporter expression [4] | punctate YFP signal (nYFP-BSS1 / BIL1-cYFP) ([2]; 3 μM Brz for 12 hours)
1 | CC(C)[C@H](C)[C@@H](O)[C@H](O)[C@@H](C)[C@H]1CC[C@H]2[C@@H]3COC(=O)[C@H]4C[C@H](O)[C@H](O)C[C@]4(C)[C@H]3CC[C@]12C [BL, brassinolide] | significantly decreased | diffuse and spread throughout the cytosol and the nucleus | – | – | – | – | – | –
2 | CC(O)(c1ccccc1)C(Cc1ccc(Cl)cc1)n1cncn1 (centres unmarked) [Brz, brassinazole] | – | – | strongly maintained | not detected | decreased | many punctate BIL1-GFP signals in the cytosol; also recorded: observed | caused BSS1 expression in the hypocotyls in the dark and in the cotyledons under light and dark conditions | increased
